Here are results for four molecules from US7521438B1, “Combination of loteprednol and β2-adrenoceptor agonists” (MEDA Pharma GmbH & Co. KG, priority 1999, dated 2009).

Series [1] can be described thus: Thymus involution in young rats on intrapulmonary powder administration over 29 days. The series is classed as in vivo. The settings on record: for Toxic dose with significant thymus involution: repeated intrapulmonary administration, 29 days, 1x daily, young rats; for Quotient of toxic dose: therapeutic dose (therapeutic breadth): toxic dose (mg/kg, 29 days) / ID50 (μg/kg, single dose), intrapulmonary, rats. As for the experimental part:
In the second experiment, the influence of loteprednol on the thymus development of young rats (21 days old at the start of the experiment) was intensively investigated in comparison to budesonide and fluticasone (see Table 4). After an intrapulmonary long-term administration of the active compound in powder form over the course of 29 days (1× daily) by means of a tube, at the end of the experiment the thymus glands were removed and the organ weight per 100 g of body mass was determined.
(§1) The therapeutic breadth of the corticosteroids was determined with the aid of the quotient of the dose (mg/kg) with significant thymus involution (toxic dose) on repeated intrapulmonary administration over the course of 29 days (1× daily) and the therapeutic dose. The therapeutic dose was determined in the asthma model of late-phase eosinophilia on actively sensitized brown Norway rats. The active compound was administered to the sensitized brown Norway rats under anesthesia intrapulmonarily 2 hours before an allergen provocation (challenge) and 24 hours later the lungs of the animals were lavaged under deep anesthesia. The number of eosinophilic granulocytes in the pulmonary lavage fluid of untreated and active compound-treated rats was then determined. Corticosteroids such as loteprednol inhibit the infiltration of eosinophils into the lung after allergen provocation.

Series [2] has as its system eosinophilic granulocytes in the pulmonary lavage fluid. In words: Late-phase eosinophilia in actively sensitized brown Norway rats, single intrapulmonary administration. The format is in vivo. The settings on record: 2 h before allergen provocation. As for the experimental part: as §1
The next series relates to TNFα release. In words: LPS-induced TNFα release in human blood diluted 1:5 (ELISA). To be noted: human blood diluted 1:5, LPS 10 μg/ml, 24 h, n = 8. The format is cell-based. The method, then:
In vitro investigations were carried out for influencing the release of the proinflammatory cytokine TNFα in human blood diluted 1:5. Stimulation was carried out using lipopolysaccharide (LPS) of Salmonella abortus equi (10 μg/ml) over the course of 24 h at 37° C. and 5% CO2 in an incubator. The TNFα release was carried out using an ELISA, composed from antibodies from Pharmigen. The results were indicated as the percentage inhibition of LPS-induced TNFα release (Table 1).
A general note: ELISA stands for enzyme-linked immunosorbent assay.

The test system of series [3] is eosinophilic granulocytes in the lung. In words: Late-phase eosinophilia in actively sensitized guinea pigs, pulmonary lavage 24 h after allergen provocation. The settings on record: guinea pig. The format is in vivo.
For series [4] the following is noted: topically administered; cited from earlier work.
The conditions of series [5]: topically administered; cited from earlier work. This is another data set of the same source.

As for `CCCC1O[C@@H]2C[C@H]3[C@@H]4CCC5=CC(=O)C=C[C@]5(C)[C@H]4[C@@H](O)C[C@]3(C)[C@]2(C(=O)CO)O1` (stereo partly drawn) [Budesonide, budesonide], in series [1], the “Toxic dose with significant thymus involution” value turned out to be 500 µg/kg and the “Quotient of toxic dose: therapeutic dose (therapeutic breadth)” value is recorded as 5 ×10^3. For the same molecule, the “Therapeutic dose in late-phase eosinophilia ID50” value in series [2] worked out at 0.1 µg/kg.
The matching figures for `C[C@@H]1C[C@H]2[C@@H]3C[C@H](F)C4=CC(=O)C=C[C@]4(C)[C@@]3(F)[C@@H](O)C[C@]2(C)[C@@]1(O)C(=O)SCF` [Fluticasone, fluticasone]: 1000 µg/kg, 33 ×10^3 and 0.03 µg/kg.
`CCOC(=O)O[C@]1(C(=O)OCCl)CC[C@H]2[C@@H]3CCC4=CC(=O)C=C[C@]4(C)[C@H]3[C@@H](O)C[C@@]21C` [Loteprednol, loteprednol] yielded an inhibition at 0.001 µM with TNFα release (0.001 μmol/l) of 1%. In series [3] (0.001 mg/kg intrapulmonarily), the Inhibition of eosinophilia is 10.5%. In addition, the Inhibition of eosinophilia in series [3] (0.003 mg/kg intrapulmonarily) is reported as 21.8%. Also, in series [1], the “Toxic dose with significant thymus involution” value is 20000 µg/kg and the “Quotient of toxic dose: therapeutic dose (therapeutic breadth)” value was 45.5 ×10^3. The “Therapeutic dose in late-phase eosinophilia ID50” value in series [2] worked out at 0.44 µg/kg. In series [4], the “Increase of intraocular pressure” value is on record as “does not increase the intraocular pressure”. In series [5], the “Detection in the plasma” value is “could not be detected in the plasma”.
In the series with TNFα release (10 μmol/l), `CC(C)(C)NCC(O)c1ccc(O)c(CO)c1` (stereo not drawn) [Salbutamol, salbutamol] displayed an inhibition at 10 µM of 17%.

Usually inhibition stands for the change of the read-out against control, counted positive when it falls. Low readings indicate little suppression, high ones strong suppression.
